Key:
[1] = tested on: β-galactosidase in tumor sections; experiment: IHC analysis of β-galactosidase in intraliver tumors after i.v. dosing of formulated siRNA; assay type: in vivo, Scid female mice; set-up: key to β-galactosidase IHC staining score, column 1 / β-galactosidase IHC staining score, column 2 / β-galactosidase IHC staining score, column 3 / β-galactosidase IHC staining score, column 4 / β-galactosidase IHC staining score, column 5 / β-galactosidase IHC staining score, column 6: −: there was no staining, a small area of weak staining, or disperse strong single cell staining; +/−: there was 5% of the section with weak staining or one patch of strong staining; +: there was 15% of the section with strong staining; ++: there was ˜50% of the section with strong straining; +++: there was 80% of the section with strong straining; ++++: the whole section had strong staining
Method: The animal studies were carried out in accordance with internal Institutional Animal Care and Use Committee (IACUC) guidelines at Abbott Laboratories. Scid female mice at 6 to 8 weeks of age were obtained from Charles River Laboratory and used for intraliver tumor models. Mouse livers were exposed by vertical incision on mouse abdomens and the tumor cells were directly injected into the livers. The incision was closed by suture and wound clips. All cell lines used for creating xenograft tumors were subjected to the IMPACT profile I test (18 agents) at the University of Missouri Research Animal Diagnostic and Investigative Laboratory, and all cell lines were found negative for the 18 infectious agents tested. Tumor cells were suspended in a 1:1 mixture of S-MEM (Invitrogen, Carlsbad, Calif.) and matrigel (BD Bioscience, San Jose, Calif.) and inoculated at 1×10E6 cells per animal.
Treatments were started 3˜4 weeks after tumor inoculation. Formulated or unformulated siRNAs were administrated via tail vein (i.v) injection.
IHC was carried out as previously described [Li, L., et al., Evaluating hypoxia-inducible factor-1alpha as a cancer therapeutic target via inducible RNA interference in vivo. Cancer Res, 2005. 65(16): p. 7249-58]. Briefly, tumors were excised, cut into pieces of less than 3 mm in thickness and immediately fixed in buffered formalin solution with neutral pH (Sigma, St. Louis, Mo.). The formalin-fixed and paraffin-embedded tumor sections were then used for staining The mouse anti-β-galactosidase mAb (Promega, Madison, Wis.) was used to detect β-galactosidase in tumor sections. DAB (3,3′-diaminobenzidine) was used as the chromogen. IHC images were acquired using the Nikon TE2000 inverted microscope. The β-galactosidase staining was evaluated by 2 people independently based on the scoring system listed below. The average of the score was calculated for each tumor.
−, there was no staining, a small area of weak staining, or disperse strong single cell staining +/−, there was 5% of the section with weak staining or one patch of strong staining +, there was 15% of the section with strong staining ++, there was ˜50% of the section with strong straining +++, there was 80% of the section with strong straining ++++, the whole section had strong staining

MDA435-TetR-Luc cells = experiment: Transfection efficiency of MDA435-TetR-Luc cells with Lipid-Based Particles (TetRLuc assay); assay type: cell-based; details: formulation employing the cationic lipid
Method: To determine the knockdown efficacy of Lipid-Based Particles in an in vitro assay, MDA435-TetR-Luc cells (The positive readout reporter cell line MDA435-TetR-Luc contained a stably integrated copy of the luciferase gene expressed from a CMV promoter containing the tetR operator site. In addition, gene coding for a destabilized TetR protein was expressed in this cell line.) were plated in 96 well plate at a density of 10K cells per well in 100 ul of DMEM (Dulbecco's Modified Eagles Medium, Invitrogen Corp.) containing 10% fetal bovine serum (Invitrogen Corp.). Appropriate dilutions of Lipid-Based Particles were made in DMEM+10% fetal bovine serum medium, 10 ul of the diluted material was transferred into each well in triplicate. Transfected cells were further incubated at 37° C. for a period of 72 hours. […] The graphs represent average of triplicate readings of the Lipid-Based Particles treated sample divided by the average of readings from 9 wells treated with doxycycline.
The ability of novel cationic lipids to transfect siRNA in vitro was evaluated in the TetRLuc assay. By utilizing a releasable PEG lipid as for examples in formulations “a” or “b”, the transfection efficiency of the unshielded or partially shielded particle may be determined.

With `C[C@H]1c2cccc(O)c2C(=O)C2=C(O)[C@]3(O)C(=O)C(C(N)=O)=C(O)[C@@H](N(C)C)[C@@H]3[C@@H](O)[C@@H]21` [Doxycycline] the “β-galactosidase IHC staining score, column 1” value ([1]; intraliver tumor, i.v. tail vein, column 1 of 6 (not further defined)) was “+++”, the “β-galactosidase IHC staining score, column 2” value ([1]; intraliver tumor, i.v. tail vein, column 2 of 6 (not further defined)) was “+++” and the “β-galactosidase IHC staining score, column 3” value ([1]; intraliver tumor, i.v. tail vein, column 3 of 6 (not further defined)) was “+++”. The “β-galactosidase IHC staining score, column 4” value ([1]; intraliver tumor, i.v. tail vein, column 4 of 6 (not further defined)) was “+++”, the “β-galactosidase IHC staining score, column 5” value ([1]; intraliver tumor, i.v. tail vein, column 5 of 6 (not further defined)) was “+++” and the “β-galactosidase IHC staining score, column 6” value ([1]; intraliver tumor, i.v. tail vein, column 6 of 6 (not further defined)) was “+++”.

With `CCCCC/C=C\C/C=C\CCCCCCCCOCC(CN1CCCC1)OCCCCCCCC/C=C\C/C=C\CCCCC` (stereo not drawn) [Example 1, 1-(2,3-bis((9Z,12Z)-octadeca-9,12-dienyloxy)propyl)pyrrolidine] the “in vitro transfection activity” value (MDA435-TetR-Luc cells) was “provided in vitro transfection activity” and the in vivo delivery ([1]; formulation employing the cationic lipid) was “efficient in vivo delivery”.

`CCCCC/C=C\C/C=C\CCCCCCCCOCC(CN(CC)CC)OCCCCCCCC/C=C\C/C=C\CCCCC` (stereo not drawn) [Example 57, N,N-diethyl-2,3-bis((9Z,12Z)-octadeca-9,12-dienyloxy)propan-1-amine] was tested, and the “in vitro transfection activity” value (MDA435-TetR-Luc cells) was “may diminish activity”.

Source: patent US20100104629A1, “CATIONIC LIPIDS AND USES THEREOF” (ABBOTT LABORATORIES, priority 2008, published 2010)
